Data on one substance can be found in patent US20250049869A1, “USE OF AURICULARIA AURICULA TOTAL POLYSACCHARIDE OR MONOMERIC POLYSACCHARIDE IN PREPARATION OF PD-L1 INHIBITOR” (priority 2023, published 2025).

“Also recorded” adds a separate entry of the source.

Data set [1] deals with LLC lung cancer transplanted tumor. The data set can be described thus: Mouse lung cancer (LLC) transplanted tumor model.
Data set [2] concerns PD-L1. The data set can be described thus: Western blot of PD-L1 expression in tumor cells with high expression of PD-L1 (NCI-H157, U2OS, SW620). As to conditions: concentration and time gradient, most significant at 2 mg/mL, 24 h. It counts as cell-based, human. The protocol: (§1) The tumor cells in question were non-small cell lung cancer NCI-H157, mouse lung cancer LLC, colon cancer SW620, human osteosarcoma U2OS, non-small cell lung cancer A549, liver cancer HepG-2, and breast cancer MCF-7. The total protein of the above cells was extracted; the protein concentration was determined by bicinchoninic acid (BCA) assay. The samples were loaded and subjected to sodium dodecyl sulfate (SDS) polyacrylamide gel electrophoresis (SDS-PAGE); the membrane was blocked and immunoreacted after transfer, and an enhanced chemiluminescence (ECL) solution was used for development. Picture processing and gray value analysis were performed on the exposure results on ImageJ software. According to the experimental results, the cell lines with high expression of PD-L1 were selected as follows: NCI-H157, LLC, U2OS, and SW620; and the cell lines with low or no expression of PD-L1 were A549, HepG-2, and MCF-7 (see FIGS. 3A and 3B).
Concentration and time gradient ME-2 were applied to act on four tumor cell lines with high expression of PD-L1, respectively. The Western blot method was used for detection, and the experimental method was shown above. […] The downregulation of tumor cell baseline PD-L1 was concentration dependent (see FIG. 5A) and time dependent (see FIG. 5B). The downregulation of PD-L1 was most significant when the dose concentration was 2 mg/mL and the administration time was 24 h.
A Western blot was used to detect the effects of Auricularia auricula total polysaccharide METP and Auricularia auricula deacetylated monomeric polysaccharide dME-2 on the expression of PD-L1 in H157 cells, and Auricularia auricula monomeric polysaccharide ME-2 was used as a positive control. The experimental procedure was described in Example 1.
On the technique in general: Immunoblotting shows a protein as a band on a membrane.

The target in a further data set is PD-L1 protein (Homo sapiens, UniProt Q9NZQ7). The data set can be described thus: SPR affinity analysis with PD-L1 protein (Biacore 8K, CM5 chip). It counts as binding. On the technique in general: SPR reads the build-up and loss of mass on a sensor chip optically.
For data set [3], the system named is NCI-H157 cells. In words: Co-culture of H157 tumor cells with stimulated Jurkat T cells, crystal violet staining. It counts as cell-based. The note with it: gradient dosing, co-culture 24 h. Here is the method:
In order to further evaluate the anti-tumor effect of ME-2 in the experiment of co-culture of tumor cells and T cells, H157 cells were inoculated into a 24-well culture plate, subjected to gradient dosing treatment for time needed, and co-cultured with stimulated Jurkat T cells for 24 h. The tumor survival was observed under a microscope after 4% polyformaldehyde fixation and crystal violet staining. The specific manifestation was the difference in the depth of staining in the different dosages and concentrations of ME-2.

In data set [4] the test system is NCI-H157 cells. In words: CCK8 in vitro cytotoxicity assay, NCI-H157. The note with it: CCK8, gradient concentration, 24 h. It counts as cell-based. Here is the method:
(§2) CCK8 was used to detect the cytotoxicity of ME-2 to NCI-H157 and LLC cells. H157 or LLC cells were inoculated overnight in 96-well cell culture plate at a concentration of 1×10^4/mL. The gradient concentration of ME-2 was prepared in the medium, and CCK8 solution was added into the 96-well cell culture plate after 24 h of action. OD values were measured at 450 nm by an enzyme-linked immunosorbent assay (ELISA) instrument.

The test system of data set [5] is PD-L1. In words: Western blot of IFN-γ-induced PD-L1 expression (A549, HepG-2, MCF-7). It counts as cell-based. The note with it: ME-2 and IFN-γ co-acted on cells. The protocol: as §1
Interferon IFN-γ is an important factor in inducing PD-L1 expression in the tumor immune microenvironment. We used low-expression PD-L1 tumor cells (non-small cell lung cancer A549, liver cancer HepG-2, and breast cancer MCF-7). ME-2 and IFN-γ were co-acted on cells; their expression abundance was detected by the Western blot method, and the experimental method was shown above.

The test system of data set [6] is PD-L1. In words: Western blot of PD-L1 expression in mouse lung cancer LLC cells. Type of data set: cell-based. As to conditions: concentration and time gradient, most significant at 2 mg/mL, 24 h. The protocol:
as §1
Concentration and time gradient ME-2 were applied to act on four tumor cell lines with high expression of PD-L1, respectively. The Western blot method was used for detection, and the experimental method was shown above. […] The downregulation of tumor cell baseline PD-L1 was concentration dependent (see FIG. 5A) and time dependent (see FIG. 5B). […]

For data set [7], the system named is PD-L1. In words: Flow cytometry of PD-L1 expression in NCI-H157 cells. The note with it: flow cytometry, 1, 2 and 5 mg/mL. Type of data set: cell-based. The protocol: (§3) NCI-H157 or LLC cells in a 6-well plate were treated with low, medium, and high doses of ME-2 at 1, 2, and 5 mg/mL, respectively, for corresponding time, and the cells were stained with a fluorescent antibody. Fluorescence intensity was measured by flow cytometry.
(A flow cytometer gives signals particle by particle.)

The target in another data set is T1, PD-L1/PD-1 interaction (Homo sapiens, UniProt Q9NZQ7).
T1 construct: NCI-H157 cells were inoculated on a 24-well cell culture plate; endogenous in cells; host or cells: NCI-H157
The data set can be described thus: PD-1Fc binding to PD-L1 on NCI-H157 cells (flow cytometry and confocal). As to conditions: 24 h of ME-2 treatment, human recombinant PD-1Fc, dose-dependent. Type of data set: cell-based. The protocol:
NCI-H157 cells were inoculated on a 24-well cell culture plate and subjected to gradient dosing treatment for time needed after cell adhesion. The cells were fixed at room temperature with a 4% solution of paraformaldehyde. The cells were washed with PBS buffer several times. An appropriate amount of human recombinant PD-1Fc protein was added to the fixed cells and incubated for 1 h, and the cells were washed with PBS buffer several times. Anti-human IgG (Alexa Fluor 488) fluorescent secondary antibody was added and incubated for 30 min. After nuclear staining, a glycerol sealing layer was applied. Green fluorescence signals were observed under a fluorescence microscope and photographed for statistics, or the fluorescence intensity was measured by flow cytometry.

The target of a further data set is PD-1 protein (Homo sapiens, UniProt Q15116). In words: SPR affinity analysis with PD-1 protein. It counts as binding.
In the next data set the target is PD-L1 and PD-1 protein (Homo sapiens, UniProt Q9NZQ7). In words: SPR competitive experiment between ME-2 and PD-1 for PD-L1. Type of data set: binding. The text has this:
Biacore 8K high-throughput molecular interaction analysis system, CM5 chip, and phosphate buffered saline (PBS) buffer as the mobile phase of the instrument were used in the whole process of the surface plasmon resonance experiment. The PD-L1 was coupled to the activated CM5 chip using an amino coupling kit. […] The ME-2 polysaccharide solution with different concentrations was passed through the coupling channel and the blank channel at a certain velocity by using the running buffer. After 60 s of dissociation, the chip was regenerated with 10 mM glycine-HCl (pH2.0) and 3 M NaCl at a flow rate of […] for 30 s. Biacore Evaluation 3.1 software and GraphPad Prism 8.0 software were used to analyze the data and obtain the response curve.

For data set [8], the system named is PD-L1. The data set can be described thus: Flow cytometry of PD-L1 expression in LLC cells. Type of data set: cell-based, mouse. The note with it: flow cytometry, 1, 2 and 5 mg/mL. Here is the method:
as §3

The test system of a further data set is LLC cells. The data set can be described thus: CCK8 in vitro cytotoxicity assay, LLC. The note with it: CCK8, gradient concentration, 24 h. Type of data set: cell-based, mouse. Here is the method:
as §2

PD-L1 protein, sequence (Q9NZQ7 19-290, species assumed): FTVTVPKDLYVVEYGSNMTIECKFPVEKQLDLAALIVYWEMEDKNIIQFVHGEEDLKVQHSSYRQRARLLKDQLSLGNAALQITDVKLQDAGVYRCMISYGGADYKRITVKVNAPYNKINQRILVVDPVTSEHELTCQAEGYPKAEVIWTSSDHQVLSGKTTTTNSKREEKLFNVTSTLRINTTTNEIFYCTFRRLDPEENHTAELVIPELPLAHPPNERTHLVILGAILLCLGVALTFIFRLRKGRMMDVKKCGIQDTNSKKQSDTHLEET
T1 sequence (Q9NZQ7 19-290): as the sequence (Q9NZQ7 19-290, species assumed) above
PD-1 protein, sequence (Q15116 25-288): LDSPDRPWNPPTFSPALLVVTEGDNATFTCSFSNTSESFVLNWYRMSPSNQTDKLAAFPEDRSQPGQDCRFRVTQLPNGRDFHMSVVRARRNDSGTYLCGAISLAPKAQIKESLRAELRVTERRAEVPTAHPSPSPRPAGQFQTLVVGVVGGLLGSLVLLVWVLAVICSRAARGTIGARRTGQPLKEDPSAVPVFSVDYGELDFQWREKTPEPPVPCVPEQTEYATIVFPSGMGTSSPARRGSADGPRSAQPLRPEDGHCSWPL
PD-L1 and PD-1 protein, sequence (Q9NZQ7 19-238 limits assumed, species assumed): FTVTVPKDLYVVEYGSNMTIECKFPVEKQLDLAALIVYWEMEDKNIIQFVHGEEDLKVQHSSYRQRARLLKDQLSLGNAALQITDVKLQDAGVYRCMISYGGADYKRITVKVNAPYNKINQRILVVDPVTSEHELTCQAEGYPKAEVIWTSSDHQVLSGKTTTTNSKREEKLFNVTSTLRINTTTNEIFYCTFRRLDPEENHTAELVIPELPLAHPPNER
Experimental for PD-L1 protein: Biacore 8K high-throughput molecular interaction analysis system, CM5 chip, and phosphate buffered saline (PBS) buffer as the mobile phase of the instrument were used in the whole process of the surface plasmon resonance experiment. The PD-L1 was coupled to the activated CM5 chip using an amino coupling kit. […] After 60 s of dissociation, the chip was regenerated with 10 mM glycine-HCl (pH2.0) and 3 M NaCl at a flow rate of 30 L/min for 30 s. Biacore Evaluation 3.1 software and GraphPad Prism 8.0 software were used to analyze the data and obtain the response curve.

“high-acetyl glucuronoxylogalactoglucomannan [ME-2]”: in data set [1] (ME-2 100 mg/kg), the “HE staining of vital organs of mice” value is “did not cause organic changes” and the “serum indexes of mice” value is “consistent with those of the control group”. Besides, the “tumor growth in model mice” value in data set [1] (ME-2 100 mg/kg, oral administration, 100 mg/kg) is “obvious better than a positive drug; also recorded: effectively inhibited”. Also, the “toxic and side effects on mice” value in data set [1] (ME-2 at the dosage used (100 mg/kg)) is “no obvious toxic and side effects”. The “body weight of mice” value in data set [1] (ME-2 experiment, all groups) is recorded as “no significant difference”. Besides, the “PD-L1 mRNA level in mouse tumors” value in data set [1] (qPCR, ME-2 treated mice) is listed as “significantly reduce”. Further, in the data set on PD-L1 [2], the “abundance of PD-L1 in NCI-H157 cells” value was “significantly down-regulated”, the “abundance of PD-L1 in SW620 cells” value is “significantly down-regulated” and the “abundance of PD-L1 in U2OS cells” value is “significantly down-regulated”. Also, the “affinity to PD-L1 protein (in words)” value at PD-L1 protein was “strong affinity”. Besides, the “sensitivity of NCI-H157 cells to killing by Jurkat T cells” value in the data set on NCI-H157 cells [3] is “more sensitive to the killing of Jurkat T cells”. The “cytotoxicity / proliferation of NCI-H157 cells” value in the data set with NCI-H157 cells [4] is reported as “no obvious cytotoxicity”. Also, in the data set on PD-L1 [5], the “IFN-γ-induced expression of PD-L1 in A549 cells” value was “significantly down-regulated”, the “IFN-γ-induced expression of PD-L1 in HepG-2 cells” value was “significantly down-regulated” and the “IFN-γ-induced expression of PD-L1 in MCF-7 cells” value was “significantly down-regulated”. The “abundance of PD-L1 in LLC cells” value with PD-L1 [6] is given as “significantly down-regulated”. For the same substance, the “PD-L1 fluorescence intensity in NCI-H157 cells” value in the data set with PD-L1 [7] was “concentration dependent inhibition”. Also, the “PD-1 binding to PD-L1 in NCI-H157 cells” value on PD-L1/PD-1 interaction was “decreased”. The “affinity to PD-1 protein (in words)” value at PD-1 protein was “no affinity”. Also, at PD-L1 and PD-1 protein, the “binding of PD-L1 and PD-1 protein with increasing concentration of ME-2” value is “significantly inhibited”. The “PD-L1 fluorescence intensity in LLC cells” value with PD-L1 [8] is “concentration dependent inhibition”. Further, the “cytotoxicity / proliferation of LLC cells” value in the data set on LLC cells was “no obvious cytotoxicity”.
